Test results as given in publication PMC5843698, “Use of QSPR Modeling to Characterize In Vitro Binding of Drugs to a Gut-Restricted Polymer” (Pharmaceutical Research, 2018).
Entries after “also recorded” stand apart in the source; their conditions may differ. Counter-ions that a name gives are not always drawn.

Experiments:
[1] = logP determination by titration in octanol/water; conditions: octanol/water
[2] = logD determination (liquid-liquid distribution chromatography, octanol-coated column); conditions: octanol-coated column with octanol-saturated mobile phase
[3] = pKa determination by titration in aqueous solution (UV or pH monitored); conditions: aqueous solution, pKa (B = base), basic group; average of three determinations
[4] = In vitro binding assay: free test drug recovered after 3 h incubation with and without patiromer in SGF, acetate buffer or SIF; conditions: for SGF / SIF / AB: QSPR input data; for SGF: test matrix SGF; for SIF: test matrix SIF; for AB: test matrix acetate buffer (AB); for In Vitro Binding (% Drug Recovered) Acetate Buffer (pH 4.5) / In Vitro Binding (% Drug Recovered) SGF (pH 3) / In Vitro Binding (% Drug Recovered) SIF (pH 5.9): patiromer 25.2 g/L, 3 h, 37°C, geometric mean of 12 replicates; for In Vitro Binding (% Drug Recovered) SGF (pH 3): simulated gastric fluid, final pH 3.0; for In Vitro Binding (% Drug Recovered) SIF (pH 5.9): simulated intestinal fluid, final pH 5.9; for In vitro patiromer binding category: strong, weak or non-binding
[5] = test drug given together with patiromer, healthy volunteers; a drug listed in the table cell = AUC reduced; cited from earlier work
[6] = Dose-response in vitro patiromer binding across a range of test drug concentrations; conditions: across a clinically relevant dose range

SMILES | logP [1] | chromatographic logD ([2]; pH 3) | chromatographic logD ([2]; pH 4.5) | chromatographic logD ([2]; pH 5.9) | pKa [3] | Behaviour of drug in the presence of patiromer and its calcium counter-ion ([4]; in vitro binding assay conditions) | AUC reduced when co-administration (lower bound of the 90% CI <80%) [5] | SGF [4] | SIF [4] | AB [4] | In Vitro Binding (% Drug Recovered) Acetate Buffer (pH 4.5) [4] | Binding categories (level of in vitro interaction with patiromer) ([4]; across SGF, AB and SIF test matrices) | In Vitro Binding (% Drug Recovered) SGF (pH 3) [4] | In Vitro Binding (% Drug Recovered) SIF (pH 5.9) [4] | In vitro patiromer binding category [4] | Concentration dependence of in vitro binding to patiromer [6]
N[C@@H](Cc1cc(I)c(Oc2cc(I)c(O)c(I)c2)c(I)c1)C(=O)O [Levothyroxine sodium] | 3.44 | 3.44 | 3.44 | 3.37 | 8.73 | precipitated in the presence of patiromer and its calcium counter-ion | Ciprofloxacin, 500 mg Levothyroxine, 0.6 mg |  |  |  |  |  |  |  |  | 
CN(C)C(=N)N=C(N)N [Metformin HCl] |  |  |  |  |  |  | moderate reduction in AUC; also recorded: Metformin, 1000 mg | 48.9 | 80.2 | 81.8 | 81.8% | Weak binder (30–55% bound in one test matrix) | 48.9% | 80.2% | weak binder | 
C=C[C@H]1C[N@@]2CC[C@H]1C[C@@H]2[C@@H](O)c1ccnc2ccc(OC)cc12 [Quinidine] |  |  |  |  |  |  |  | 12.6 | 24.3 |  |  |  | 12.6% | 24.3% | strong binders | did not show strong concentration dependence
COc1cc(Cc2cnc(N)nc2N)cc(OC)c1OC [Trimethoprim] |  |  |  |  |  |  |  | 36.3 | 28.4 | 55.3 | 55.3% |  | 36.3% | 28.4% | strong binders | did not show strong concentration dependence
